Patent publication US10738056B2 (Aduro BioTech, Inc., priority 2017, dated 2020)
Where two headings read alike, the source gives them in different places.

Key:
[1] = target: Human cGAS amino acids 155-522 (Homo sapiens (Human), UniProt Q8N884); experiment: cGAS biochemical activity assay (ATP remaining, Kinase-Glo Max luminescence); details: human cGAS 155-522, ATP remaining (Kinase-Glo Max); read-out: cGAS IC50
[2] = tested on: cGAS/STING pathway in THP1 cells; experiment: THP1 cell-based cGAS/STING pathway activity assay (IRF-3-linked luciferase reporter)
Outline: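 THP1 cells carrying an IRF-3-driven luciferase reporter were read across a range of compound concentrations, and IC50 values were derived from these concentration responses; the assay upper limit was 100 μM.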

Sequence of Human cGAS amino acids 155-522 (Q8N884 157-522): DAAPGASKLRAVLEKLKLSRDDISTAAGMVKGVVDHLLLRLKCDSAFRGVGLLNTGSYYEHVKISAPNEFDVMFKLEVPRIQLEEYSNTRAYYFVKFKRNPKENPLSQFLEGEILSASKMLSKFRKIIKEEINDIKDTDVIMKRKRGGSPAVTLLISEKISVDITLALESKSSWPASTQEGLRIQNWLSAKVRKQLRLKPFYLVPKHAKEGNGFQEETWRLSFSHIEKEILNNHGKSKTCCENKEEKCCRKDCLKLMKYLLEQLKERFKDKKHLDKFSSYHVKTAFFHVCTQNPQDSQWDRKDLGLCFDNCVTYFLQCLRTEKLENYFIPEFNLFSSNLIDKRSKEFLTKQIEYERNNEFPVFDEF

SMILES	IC50 [1] [µM]	IC50 ([2]; Homo sapiens, THP-1) [µM]	IC50 ([2]; read-out: THP-1 IC50) [µM]
COc1cccc2oc(-c3c(COCC4CNC(=O)O4)[nH]c4c(-c5ccccc5)c(C#N)nn4c3=O)nc12 (stereo not shown) [Compound C1251, 6-(4-methoxybenzo[d]oxazol-2-yl)-7-oxo-5-(((2-oxooxazolidin-5-yl)methoxy)methyl)-3-phenyl-4,7-dihydropyrazolo[1,5-a]pyrimidine-2-carbonitrile]	< 20	> 100	–
COc1cccc2oc(-c3c(-c4cn[nH]c4)[nH]c4c(-c5ccccc5)c(C(F)(F)F)nn4c3=O)nc12 [Compound C1254, 6-(4-methoxybenzo[d]oxazol-2-yl)-3-phenyl-5-(1H-pyrazol-4-yl)-2-(triluoromethyl)pyrazolo[1,5-a]pyrimidin-7(4H)-one]	< 20	> 100	–
Cc1[nH]c2c(-c3ccccc3)c(C(F)(F)F)nn2c(=O)c1-c1nnc(N2CCCC2C)o1 (stereo not shown) [Compound D1022, 5-methyl-6-(5-(2-methylpyrrolidin-1-yl)-1,3,4-oxadiazol-2-yl)-3-phenyl-2-(trifluoromethyl)pyrazolo[1,5-a]pyrimidin-7(4H)-one]	< 20	> 100	–
COc1cccc2oc(-c3c(CO)[nH]c4c(-c5ccccc5)c(C(F)(F)F)nn4c3=O)nc12 [Compound C1103, 5-(hydroxymethyl)-6-(4-methoxybenzo[d]oxazol-2-yl)-3-phenyl-2-(trifluoromethyl)pyrazolo[1,5-a]pyrimidin-7(4H)-one]	< 20	20 to 100	–
Cc1[nH]c2c(-c3ccccc3)c(C(F)(F)F)nn2c(=O)c1-c1nnc(C2CCCN(S(C)(=O)=O)C2)o1 (stereo not shown) [Compound D1040, 5-methyl-6-(5-(1-(methylsulfonyl)piperidin-3-yl)-1,3,4-oxadiazol-2-yl)-3-phenyl-2-(trifluoromethyl)pyrazolo[1,5-a]pyrimidin-7(4H)-one]	< 20	> 100	–
CC(=O)N1CCCC(c2nnc(-c3c(C)[nH]c4c(-c5ccccc5)c(C(F)(F)F)nn4c3=O)o2)C1 (stereo not shown) [Compound D1041, 6-(5-(1-acetylpiperidin-3-yl)-1,3,4-oxadiazol-2-yl)-5-methyl-3-phenyl-2-(trifluoromethyl)pyrazolo[1,5-a]pyrimidin-7(4H)-one]	20 to 250	> 100	–
CCc1cccc2oc(-c3c(C)[nH]c4c(-c5ccccc5)c(C#N)nn4c3=O)nc12 [Compound C1188, 6-(4-ethylbenzo[d]oxazol-2-yl)-5-methyl-7-oxo-3-phenyl-4,7-dihydropyrazolo[1,5-a]pyrimidine-2-carbonitrile]	< 20	< 20	–
Cc1[nH]c2c(-c3ccccc3)c(C(F)(F)F)nn2c(=O)c1C(=O)NCc1ccccc1 [Compound A1023, N-benzyl-5-methyl-7-oxo-3-phenyl-2-(trifluoromethyl)-4,7-dihydropyrazolo[1,5-a]pyrimidine-6-carboxamide]	20 to 250	20 to 100	–
COc1cccc2oc(-c3c(C(=O)NC4CCOCC4)[nH]c4c(-c5ccccc5)c(C(F)(F)F)nn4c3=O)nc12 [Compound C1194, 6-(4-methoxybenzo[d]oxazol-2-yl)-7-oxo-3-phenyl-N-(tetrahydro-2H-pyran-4-yl)-2-(trifluoromethyl)-4,7-dihydropyrazolo[1,5-a]pyrimidine-5-carboxamide]	< 20	> 100	–
COc1cccc2oc(-c3c(N4CCOCC4)[nH]c4c(-c5ccccc5)c(C(F)(F)F)nn4c3=O)nc12 [Compound C1258, 6-(4-methoxybenzo[d]oxazol-2-yl)-5-morpholino-3-phenyl-2-(trifluoromethyl)pyrazolo[1,5-a]pyrimidin-7(4H)-one]	< 20	< 20	–
Cc1[nH]c2c(-c3ccccc3)c(C(F)(F)F)nn2c(=O)c1-c1nnc(C2CCCCO2)o1 (stereo not shown) [Compound D1024, 5-methyl-3-phenyl-6-(5-(tetrahydro-2H-pyran-2-yl)-1,3,4-oxadiazol-2-yl)-2-(trifluoromethyl)pyrazolo[1,5-a]pyrimidin-7(4H)-one]	< 20	> 100	–
COC[C@@H]1COC(c2c(C)[nH]c3c(-c4ccccc4)c(C(F)(F)F)nn3c2=O)=N1 [Compound C1184, (R)-6-(4-(methoxymethyl)-4,5-dihydrooxazol-2-yl)-5-methyl-3-phenyl-2-(trifluoromethyl)pyrazolo[1,5-a]pyrimidin-7(4H)-one]	< 20	> 100	–
COc1cc(C(=O)O)cc2oc(-c3c(C)[nH]c4c(-c5ccccc5)c(C(F)(F)F)nn4c3=O)nc12 [Compound C1155, 4-methoxy-2-(5-methyl-7-oxo-3-phenyl-2-(trifluoromethyl)-4,7-dihydropyrazolo[1,5-a]pyrimidin-6-yl)benzo[d]oxazole-6-carboxylic acid]	< 20	20 to 100	–
Cc1[nH]c2c(-c3ccccc3)c(C(F)(F)F)nn2c(=O)c1C(=O)Nc1cc[nH]n1 [Compound A1076, 5-methyl-7-oxo-3-phenyl-N-(1H-pyrazol-3-yl)-2-(trifluoromethyl)-4,7-dihydropyrazolo[1,5-a]pyrimidine-6-carboxamide]	< 20	20 to 100	–
COc1cccc2oc(-c3c(COCCO)[nH]c4c(-c5ccccc5)c(C#N)nn4c3=O)nc12 [Compound C1248, 5-((2-hydroxyethoxy)methyl)-6-(4-methoxybenzo[d]oxazol-2-yl)-7-oxo-3-phenyl-4,7-dihydropyrazolo[1,5-a]pyrimidine-2-carbonitrile]	< 20	> 100	–
Cc1[nH]c2c(-c3ccccc3)c(C(F)(F)F)nn2c(=O)c1C(=O)Nc1ccn(C(C)C)n1 [Compound A1065, N-(1-isopropyl-1H-pyrazol-3-yl)-5-methyl-7-oxo-3-phenyl-2-(trifluoromethyl)-4,7-dihydropyrazolo[1,5-a]pyrimidine-6-carboxamide]	< 20	20 to 100	–
COc1nc(N)cc2oc(-c3c(C)[nH]c4c(-c5ccccc5)c(C#N)nn4c3=O)nc12 [Compound C1218, 6-(6-amino-4-methoxyoxazolo[4,5-c]pyridin-2-yl)-5-methyl-7-oxo-3-phenyl-4,7-dihydropyrazolo[1,5-a]pyrimidine-2-carbonitrile]	< 20	> 100	–
Cc1[nH]c2c(-c3ccccc3)c(C(F)(F)F)nn2c(=O)c1C(=O)Nc1cccnc1S(C)(=O)=O [Compound A1096, 5-methyl-N-(2-(methylsulfonyl)pyridin-3-yl)-7-oxo-3-phenyl-2-(trifluoromethyl)-4,7-dihydropyrazolo[1,5-a]pyrimidine-6-carboxamide]	< 20	20 to 100	–
Cc1[nH]c2c(-c3ccccc3)c(C#N)nn2c(=O)c1-c1ccccc1 [Compound C1273, 5-methyl-7-oxo-3,6-diphenyl-4,7-dihydropyrazolo[1,5-a]pyrimidine-2-carbonitrile]	< 20	< 20	–
COc1cc(C(=N)N)cc2oc(-c3c(C)[nH]c4c(-c5ccccc5)c(C(F)(F)F)nn4c3=O)nc12 [Compound C1141, 4-methoxy-2-(5-methyl-7-oxo-3-phenyl-2-(trifluoromethyl)-4,7-dihydropyrazolo[1,5-a]pyrimidin-6-yl)benzo[d]oxazole-6-carboximidamide]	< 20	> 100	–
Cc1[nH]c2c(-c3ccccc3)c(C(F)(F)F)nn2c(=O)c1-c1nc2ccccc2n1CC(F)(F)F [Compound C1231, 5-methyl-3-phenyl-6-(1-(2,2,2-trifluoroethyl)-1H-benzo[d]imidazol-2-yl)-2-(trifluoromethyl)pyrazolo[1,5-a]pyrimidin-7(4H)-one]	20 to 250	< 20	–
Cc1[nH]c2c(-c3ccccc3)c(C(F)(F)F)nn2c(=O)c1-c1nnc(C2CCCCC2)o1 [Compound D1004, 6-(5-cyclohexyl-1,3,4-oxadiazol-2-yl)-5-methyl-3-phenyl-2-(trifluoromethyl)pyrazolo[1,5-a]pyrimidin-7(4H)-one]	< 20	> 100	–
CO[C@@H]1CCCC1c1nnc(-c2c(C)[nH]c3c(-c4ccccc4)c(C(F)(F)F)nn3c2=O)o1 (stereo partly shown) [D1049 Iso-2]	< 20	–	> 100
COc1cccc2oc(-c3c(C(=O)NC4COC4)[nH]c4c(-c5ccccc5)c(C(F)(F)F)nn4c3=O)nc12 [Compound C1185, 6-(4-methoxybenzo[d]oxazol-2-yl)-N-(oxetan-3-yl)-7-oxo-3-phenyl-2-(trifluoromethyl)-4,7-dihydropyrazolo[1,5-a]pyrimidine-5-carboxamide]	< 20	20 to 100	–
COc1cccc2oc(-c3c(C)[nH]c4c(-c5ccccc5)c(C#N)nn4c3=O)nc12 [Compound C1051, 6-(4-methoxybenzo[d]oxazol-2-yl)-5-methyl-7-oxo-3-phenyl-4,7-dihydropyrazolo[1,5-a]pyrimidine-2-carbonitrile]	< 20	20 to 100	–
COc1ccc(C#N)c2oc(-c3c(C)[nH]c4c(-c5ccccc5)c(C(F)(F)F)nn4c3=O)nc12 [Compound C1100, 4-methoxy-2-(5-methyl-7-oxo-3-phenyl-2-(trifluoromethyl)-4,7-dihydropyrazolo[1,5-a]pyrimidin-6-yl)benzo[d]oxazole-7-carbonitrile]	< 20	20 to 100	–
COc1cccc2oc(-c3c(COC4COC4)[nH]c4c(-c5ccccc5)c(C(F)(F)F)nn4c3=O)nc12 [Compound C1152, 6-(4-methoxybenzo[d]oxazol-2-yl)-5-((oxetan-3-yloxy)methyl)-3-phenyl-2-(trifluoromethyl)pyrazolo[1,5-a]pyrimidin-7(4H)-one]	< 20	20 to 100	–
Cc1nn2c(=O)c(C(=O)Nc3ccccc3S(C)(=O)=O)c(C)[nH]c2c1-c1ccccc1 [Compound A1106, 2,5-dimethyl-N-(2-(methylsulfonyl)phenyl)-7-oxo-3-phenyl-4,7-dihydropyrazolo[1,5-a]pyrimidine-6-carboxamide]	< 20	> 100	–
CO[C@H]1CCCCC1c1nnc(-c2c(C)[nH]c3c(-c4ccccc4)c(C(F)(F)F)nn3c2=O)o1 (stereo partly shown) [D1046 Iso-1]	< 20	–	< 20
